Source: patent US20240374551A1, “ENTERO-ANTISEPTIC FOR THE TREATMENT OF GASTROINTESTINAL INFECTIONS IN HUMANS” (priority 2023, published 2024)

How the values were obtained:
Staphylococcus aureus = assay: Zone diameter on Müler-Hinton-Agar; type: cell-based
Escherichia coli 0157H5 = assay: Zone diameter on Müler-Hinton-Agar; type: cell-based
[1] = system: Salmonella typhimurium DT104; assay: Zone diameter on Müler-Hinton-Agar; type: cell-based
Streptococcus pneumonia = assay: Zone diameter on Müler-Hinton-Agar; type: cell-based
Streptococcus pyogenes = assay: Zone diameter on Müler-Hinton-Agar; type: cell-based
Streptococcus uberis = assay: Zone diameter on Müler-Hinton-Agar; type: cell-based
Listeria monocytogenes = assay: Zone diameter on Müler-Hinton-Agar; type: cell-based
Salmonella = assay: Zone diameter on Müler-Hinton-Agar; type: cell-based
Campylobacter = assay: Zone diameter on Müler-Hinton-Agar; type: cell-based
Shigella = assay: Zone diameter on Müler-Hinton-Agar; type: cell-based
Vibrio = assay: Zone diameter on Müler-Hinton-Agar; type: cell-based
Yersinia = type: cell-based; details: Müler-Hinton-Agar
Listeria = assay: Zone diameter on Müler-Hinton-Agar; type: cell-based
[2] = Clinical pilot study on side effects, 60 humans; type: in vivo; details: 250 mg/30 kg body weight every 12 h for 7 days
Protocol: The reason for this testing was to check if the compound tablets, after a longer period of use, can cause any eventual side effects.
The test results were generated and monitored to obtain the relevant information and facts. In this study, the general monitored parameters were: pulse, breathing, ECG (Electrocardiography), discomfort, adverse events, and/or allergy monitoring. These parameters were measured before the treatment with the compound and 15 min after its intake. The compound was ingested on the therapeutic days in each patient at 8.00 AM and 8.00 PM CET (paragraph [0034] and paragraph [0035]). After The compound had been consumed, the physician made observations for 30 min. The patients' feelings during and after the compound intake were also recorded for each participant.
As part of the biochemical analysis of patients' blood, each patient's blood sample was checked for biochemical parameters. Blood samples were taken from each patient before the beginning of the test, on the 4th day from the tests beginning, and on the 8th day from the tests beginning. […] The biochemical parameters that were measured in blood samples include: • 1. Liver status • 2. C Reactive protein • 3. Kidney status
The dose was: 250 mg of the compound/30 kg of the body weight every 12 h for seven (7) days (paragraph [0034] and paragraph [0035]). […]

bacteria = assay: In vitro studies of bactericide effect versus Thymol and Carvacrol; type: cell-based
white lab mice [3] = assay: Acute toxicity, oral LD50 p.o., mice
white lab rats [4] = assay: Acute toxicity, oral LD50 p.o., rats
mammalian cells = assay: Pilot test of effect on mitotic cell division; details: compound in tablet form
white lab mice [5] = assay: Acute toxicity, parenteral intraperitoneal LD50 i.p., mice; details: mouse, in vivo
white lab rats [6] = assay: Acute toxicity, parenteral intraperitoneal LD50 i.p., rats

CC1(C)S[C@@H]2[C@H](NC(=O)[C@H](N)c3ccccc3)C(=O)N2[C@H]1C(=O)O [Ampicillin]
R (evaluation by zone diameter) (Staphylococcus aureus): R (0 mm-4 mm: resistant: R) | R (evaluation by zone diameter) (Escherichia coli 0157H5): MS (5 mm-9 mm: moderately sensitive: MS) | R (evaluation by zone diameter) [1]: MS (5 mm-9 mm: moderately sensitive: MS) | R (evaluation by zone diameter) (Streptococcus pneumonia): R (0 mm-4 mm: resistant: R) | R (evaluation by zone diameter) (Streptococcus pyogenes): R (0 mm-4 mm: resistant: R) | R (evaluation by zone diameter) (Streptococcus uberis): R (0 mm-4 mm: resistant: R) | R (evaluation by zone diameter) (Listeria monocytogenes): MS (5 mm-9 mm: moderately sensitive: MS) | R (evaluation by zone diameter) (Salmonella): MS (5 mm-9 mm: moderately sensitive: MS) | R (evaluation by zone diameter) (Campylobacter): R (0 mm-4 mm: resistant: R) | R (evaluation by zone diameter) (Shigella): MS (5 mm-9 mm: moderately sensitive: MS) | R (evaluation by zone diameter) (Vibrio): R (0 mm-4 mm: resistant: R) | R (evaluation by zone diameter) (Yersinia): R (0 mm-4 mm: resistant: R) | R (evaluation by zone diameter) (Listeria): R (0 mm-4 mm: resistant: R)

2-(2-isopropyl-5-methylphenoxy)-2-oxoethan-1-aminium 2-isopropyl-5methylphenolate [The novel compound]
R (evaluation by zone diameter) (Staphylococcus aureus): ES (21 mm and more: extremely sensitive: ES) | R (evaluation by zone diameter) (Escherichia coli 0157H5): ES (21 mm and more: extremely sensitive: ES) | R (evaluation by zone diameter) [1]: ES (21 mm and more: extremely sensitive: ES) | R (evaluation by zone diameter) (Streptococcus pneumonia): ES (21 mm and more: extremely sensitive: ES) | R (evaluation by zone diameter) (Streptococcus pyogenes): ES (21 mm and more: extremely sensitive: ES) | R (evaluation by zone diameter) (Streptococcus uberis): ES (21 mm and more: extremely sensitive: ES) | R (evaluation by zone diameter) (Listeria monocytogenes): ES (21 mm and more: extremely sensitive: ES) | R (evaluation by zone diameter) (Salmonella): ES (21 mm and more: extremely sensitive: ES) | R (evaluation by zone diameter) (Campylobacter): ES (21 mm and more: extremely sensitive: ES) | R (evaluation by zone diameter) (Shigella): ES (21 mm and more: extremely sensitive: ES) | R (evaluation by zone diameter) (Vibrio): ES (21 mm and more: extremely sensitive: ES) | R (evaluation by zone diameter) (Yersinia): ES (21 mm and more: extremely sensitive: ES) | R (evaluation by zone diameter) (Listeria): ES (21 mm and more: extremely sensitive: ES) | allergy symptoms [2]: no allergy symptoms | tolerance [2]: showed tolerance | bactericide effect compared with Thymol and Carvacrol (bacteria): more effective and faster bactericide effect than existing Thymol and Carvacrol | time after which discomfort symptoms disappeared (white lab mice [3]; mice, p.o., 2,000 mg/kg): 1 to 3 min | mice that changed their behavior and demonstrated light discomfort (white lab mice [3]; out of 100 mice, oral dose 2,000 mg/kg): 21 | rats that changed their behavior and demonstrated light discomfort (white lab rats [4]; out of 100 rats, oral dose 2,500 mg/kg): 37 | time after which discomfort symptoms disappeared (white lab rats [4]; rats, p.o., 2,500 mg/kg): 1 to 3 min | effect on mitotic cell division (mammalian cells): no negative effects were diagnosed | mice that changed their behavior and demonstrated discomfort (white lab mice [5]): 27 | time after which discomfort symptoms disappeared (white lab mice [5]): 3 to 5 min | rats that changed their behavior and demonstrated discomfort (white lab rats [6]; out of 100 rats, i.p. dose 2,500 mg/kg): 35 | time after which discomfort symptoms disappeared (white lab rats [6]; rats, i.p., 2,500 mg/kg): 5 to 6 min
